Data set [1] concerns apple Alternaria leaf blotch (Alternaria mali). The data set can be described thus: Test Example 5: apple Alternaria leaf blotch, single and combined fungicides (Table 2). In kind it is in vivo. The settings on record: for Lesion area ratio (%) / Protection value: apple seedlings; for protection effect in combination compared with estimated protection effect (synergy): in combination with chlorothalonil, hexaconazole and azoxystrobin.

The test system of data set [2] is rice blast (Pyricularia oryzae). In kind it is in vivo. The settings on record: for Lesion area ratio (%) / Protection value: rice plants.
Data set [3] relates to cucumber gray mold (Botrytis cinerea). The data set can be described thus: Test Example 9: cucumber gray mold, single and combined fungicides (Table 6). The settings on record: for Lesion area ratio (%) / Protection value: young cucumber (Yotsuba).
Description: (§1) The protection value was calculated by means of the equation as follows. protection value=(1−(lesion area in the division treated with fungicide)/lesion area in the division not treated with fungicide))×100
(§2) An estimated protection value of a mixture of active ingredients was calculated according to the Colby's formula [R. S. Colby, Weeds 15, 20-22 (1967)] and compared with the experimental protection value.
[wherein, E is the estimated protection value (additive effect) which will be obtained when the active ingredients A and B are used in a mixture in concentrations a and b, respectively x is the protection value obtained when the active igredient A is used in a concentration a, and y is the protection value obtained when the active ingredient B is used in a concentration b. […] A protection value equal 0 means that the lesion area ratio of the plants in the test group is as large as that of the plants in the untreated control group. A protection value equals 100 means that the plants in the test group are free from the disease.
The test compound (denoted by the compound No. in Table 1 above), azoxystrobin, mepanipyrim and iprodione, individually or in combination, were dissolved in dimethylformamide (final concentration was 1 wt %). Xylene (final concentration was 0.02 wt %) and Tween 20 (Trade Name) (final concentration was 0.02 wt %) were added to the solution. The resulting mixture was diluted with water to give a test solution which contained a given concentration (ppm) of the active ingredient. A spreader adjuvant SINDAIN (Trade Name, Manufactured by Takeda Chemical Industries, Ltd, and comprises 20 wt % of polyoxyethylene nonylphenyl ether and 12 wt % of calcium ligninsulfonate) was added to this solution in the final concentration of 0.05 wt % to give a spray agent.
The spray agent was sprayed in an amount of 10 ml/pot on young cucumber (cultural variety: Yotsuba) cultivated for 3 to 4 weeks in a greenhouse. After drying up in a room, the treated cucumbers were inoculated with pathogenic fangi on the leaves by placing the mycelial disks which were cut out from a PSA medium grown with Botrytis cinerea and then kept in a greenhouse at 28° C. for 3 days. Then, the ratio of the lesion area on the plants treated with the test compound and that on the plants treated with another substances to that on untreated plants was investigated.
Data set [4] concerns apple Alternaria leaf blotch (Alternaria mali). The data set can be described thus: Test Example 6: apple Alternaria leaf blotch, single and combined fungicides (Table 3). The settings on record: for Lesion area ratio (%) / Protection value: apple leaves; for protection effect in combination compared with estimated protection effect (synergy): in combination with mepanipyrim (No. 289) and iminoctadine (No. 97), respectively.
Description: as §1, §2
[wherein, E is the estimated protection value (additive effect) which will be obtained when the active ingredients A and B are used in a mixture in concentrations a and b, respectively x is the protection value obtained when the active igredient A is used in a concentration a, and y is the protection value obtained when the active ingredient B is used in a concentration b.

The test system of data set [5] is rice Helminthosporium leaf spot (Cochliobolus miyabeanus). As to the kind of experiment: Test Example 8: rice Helminthosporium leaf spot, single and combined fungicides (Table 5). The settings on record: for Lesion area ratio (%) / Protection value: young rice plants. In kind it is in vivo.

Like-named read-outs stand apart in the source and are kept apart here.

`CCCCC(O)(Cn1cncn1)c1ccc(Cl)cc1Cl` (stereo not drawn) [Hexaconazole, hexaconazole, reference compound]: the “Lesion area ratio (%)” value in data set [1] (0.4 ppm active ingredient) is on record as 70.0%; in data set [1] (1.6 ppm active ingredient), 66.7%; in data set [1] (6.3 ppm active ingredient), 21.7%. For the same compound, the Protection value in data set [1] (0.4 ppm active ingredient) is 0; in data set [1] (1.6 ppm active ingredient), 0; in data set [1] (6.3 ppm active ingredient), 63.

With `CO/C=C(/C(=O)OC)c1ccccc1Oc1cc(Oc2ccccc2C#N)ncn1` [Azoxystrobin, azoxystrobin, reference compound], the “Lesion area ratio (%)” value in data set [2] (0.1 ppm active ingredient) is on record as 11.0%; in data set [2] (0.5 ppm active ingredient) it was 5.0%; in data set [3] (10 ppm active ingredient) it was 3.9%; in data set [1] (6.3 ppm active ingredient), 25.8%; in data set [1] (25 ppm active ingredient), 25.0%. The Protection value in data set [2] (0.1 ppm active ingredient) stood at 56; in data set [2] (0.5 ppm active ingredient) it was 80; in data set [3] (10 ppm active ingredient), 69.8; in data set [1] (6.3 ppm active ingredient), 56; in data set [1] (25 ppm active ingredient), 58.

Consider `CC#Cc1cc(C)nc(Nc2ccccc2)n1` [Mepanipyrim, mepanipyrim, reference compound], for which the “Lesion area ratio (%)” value in data set [4] (0.4 ppm active ingredient) was 68.3%; in data set [4] (1.6 ppm active ingredient), 73.3%; in data set [4] (6.3 ppm active ingredient) it was 19.3%; in data set [3] (10 ppm active ingredient), 6.0%. Further, the Protection value in data set [4] (0.4 ppm active ingredient) was determined as 4; in data set [4] (1.6 ppm active ingredient), 0; in data set [4] (6.3 ppm active ingredient) it was 73; in data set [3] (10 ppm active ingredient), 53.8.

For the compound `CCN(c1ccc(Cl)cc1[N+](=O)[O-])S(=O)(=O)c1ccc(C)cc1` [Compound No. 289, 4′-Chloro-N-ethyl-2′-nitro-p-toluenesulfonanilide], the “Lesion area ratio (%)” value in data set [2] (100 ppm active ingredient) is on record as 25.0%; in data set [2] (200 ppm active ingredient), 25.0%; in data set [5] (25 ppm active ingredient), 5.0%; in data set [5] (100 ppm active ingredient), 4.5%; in data set [4] (0.4 ppm active ingredient), 18.3%; in data set [4] (1.6 ppm active ingredient), 13.7%. Also, the “Lesion area ratio (%)” value was determined as 9.3% in data set [4] (6.3 ppm active ingredient); 13.2% in data set [3] (100 ppm active ingredient); 36.9% in data set [1] (0.4 ppm active ingredient); 20.8% in data set [1] (1.6 ppm active ingredient); 3.8% in data set [1] (6.3 ppm active ingredient); 4.3% in data set [1] (25 ppm active ingredient). Further, the Protection value is 0 in data set [2] (100 ppm active ingredient); 0 in data set [2] (200 ppm active ingredient); 71.4 in data set [5] (25 ppm active ingredient); 74.3 in data set [5] (100 ppm active ingredient); 74 in data set [4] (0.4 ppm active ingredient); 81 in data set [4] (1.6 ppm active ingredient). Also, the Protection value is on record as 87 in data set [4] (6.3 ppm active ingredient); 0.0 in data set [3] (100 ppm active ingredient); 38 in data set [1] (0.4 ppm active ingredient); 65 in data set [1] (1.6 ppm active ingredient); 94 in data set [1] (6.3 ppm active ingredient); 93 in data set [1] (25 ppm active ingredient). Further, the “protection effect in combination compared with estimated protection effect (synergy)” value in data set [2] (in combination with azoxystrobin) is reported as “higher protection effect”; in data set [4], “higher protection effect”; in data set [3] (in combination with azoxystrobin, mepanipyrim and iprodione) it was “higher protection effect”; in data set [1], “higher protection effect”. Besides, in data set [5] (in combination with ferimzone), the “protection effect in combination compared with estimated protective effect (synergy)” value is “higher protection effect”.

Turning to `CON(c1ccc([N+](=O)[O-])cc1Cl)S(=O)(=O)c1cc(Cl)ccc1Cl` [Compound No. 528, N-Methoxy-4′-nitro-2,2′,5-trichlorobenzenesulfonanilide], the melting point lay within 136 to 138 °C.

`Cc1ccc(S(=O)(=O)N(c2ccc(Cl)cc2C#N)C(C)C)cc1` [Compound No. 97, 4′-Chloro-2′-cyano-N-isopropyl-p-toluenesulfonanilide]: the entries for the “Lesion area ratio (%)” value in data set [4] (0.4 ppm active ingredient), in data set [4] (1.6 ppm active ingredient) and in data set [4] (6.3 ppm active ingredient) were 25.0%, 19.2% and 8.0%, respectively. Further, the figures for the Protection value in data set [4] (0.4 ppm active ingredient), in data set [4] (1.6 ppm active ingredient) and in data set [4] (6.3 ppm active ingredient) were 65, 73 and 89, respectively. In addition, the “protection effect in combination compared with estimated protection effect (synergy)” value in data set [4] is recorded as “higher protection effect”.

For `N#Cc1c(Cl)c(Cl)c(Cl)c(C#N)c1Cl` [Chlorothalonil, chlorothalonil, reference compound], the “Lesion area ratio (%)” value in data set [1] (6.3 ppm active ingredient) is recorded as 43.5%; in data set [1] (25 ppm active ingredient) it was 60.0%; in data set [1] (100 ppm active ingredient) it was 16.8%. The Protection value in data set [1] (6.3 ppm active ingredient) amounted to 27; in data set [1] (25 ppm active ingredient), 0; in data set [1] (100 ppm active ingredient) it was 72.

For `C/C(=N/Nc1nc(C)cc(C)n1)c1ccccc1C` [Ferimzone, ferimzone, reference compound], the “Lesion area ratio (%)” value in data set [5] (25 ppm active ingredient) is 1.5%; in data set [5] (100 ppm active ingredient) it was 0.4%. Besides, the Protection value is listed as 91.4 in data set [5] (25 ppm active ingredient) and 98.0 in data set [5] (100 ppm active ingredient).

Take `Cc1ccc(S(=O)(=O)N(c2ccc([N+](=O)[O-])cc2C#N)C(C)C)cc1` [Compound No. 421]: the “Lesion area ratio (%)” value in data set [1] (0.4 ppm active ingredient) stood at 24.7%; in data set [1] (1.6 ppm active ingredient), 20.0%; in data set [1] (6.3 ppm active ingredient), 2.3%; in data set [1] (25 ppm active ingredient), 0.3%. In addition, the Protection value in data set [1] (0.4 ppm active ingredient) was 58; in data set [1] (1.6 ppm active ingredient), 66; in data set [1] (6.3 ppm active ingredient), 96; in data set [1] (25 ppm active ingredient), 99. For the same compound, the “protection effect in combination compared with estimated protection effect (synergy)” value in data set [1] was “higher protection effect”.

Consider `CC(C)NC(=O)N1CC(=O)N(c2cc(Cl)cc(Cl)c2)C1=O` [Iprodione, iprodione], for which, in data set [3] (10 ppm active ingredient), the “Lesion area ratio (%)” value turned out to be 3.7% and the Protection value came out at 71.3.

The compound `Cc1ccc(S(=O)(=O)N(C)c2ccccc2[N+](=O)[O-])cc1` [Compound No. 38, N-Methyl-2′-nitro-p-toluenesulfonanilide] returned a melting point of 131.5 to 132.5 °C.

In turn, `CCN(c1ccc(SC)cc1[N+](=O)[O-])S(=O)(=O)c1ccc(C)cc1` [Compound No. 227, N-Ethyl-4′-methylthio-2′-nitro-p-toluenesulfonanilide] gave a melting point of 135 to 136 °C.

For `N=C(N)NCCCCCCCCNCCCCCCCCNC(=N)N` [Iminoctadine, iminoctadine, reference compound], the “Lesion area ratio (%)” value is reported as 66.7% in data set [4] (0.4 ppm active ingredient), 33.8% in data set [4] (1.6 ppm active ingredient) and 35.0% in data set [4] (6.3 ppm active ingredient). Moreover, the results for the Protection value in data set [4] (0.4 ppm active ingredient), in data set [4] (1.6 ppm active ingredient) and in data set [4] (6.3 ppm active ingredient) were 6, 52 and 51, respectively.

The term melting point denotes the temperature of the solid-liquid transition.

Source of the values: patent US6586617B1, “Sulfonamide derivatives” (Sumitomo Chemical Takeda Agro Company, Limited, priority 1999, dated 2003).
